We go through 16 compounds from ChEMBL document CHEMBL3217485, “Understanding and overcoming aminoglycoside resistance caused by N-6'-acetyltransferase” (Medchemcomm, 2012).

The structures appear in SMILES notation. In brackets after ≈: the same amount, converted by molar mass.

What is called Kd is the constant that tells how readily two partners part at equilibrium. High values mean weaker binding, low ones tighter binding. For orientation: Ki means the equilibrium dissociation constant of an inhibitor or competing ligand from its target. Higher therefore signals weaker binding. As usually defined, the MIC is the lowest concentration found to suppress growth. A higher MIC goes with a need for much substance. The term Km denotes the substrate concentration at which the rate is half of its maximum. The term kcat denotes the number of substrate molecules converted per active site and unit of time at saturation.

The nature of test [1]: Binding affinity to AAC(6')-lb (unknown origin).
A short description of test [2]: Inhibition of AAC(6')-lb (unknown origin).
Test [3] has as its system Escherichia coli. The test can be described thus: Antibacterial activity against kanamycin-resistant Escherichia coli K-12 R5 expressing AAC(6') enzyme. It is filed as functional.
A further test has as its system Pseudomonas aeruginosa. Nature of the test: Antibacterial activity against kanamycin-resistant Pseudomonas aeruginosa GN315 expressing AAC(6') enzyme. It is filed as functional.
Test [4] is described as follows: Binding affinity to biotinylated Escherichia coli 16S rRNA A-site.
A short description of test [5]: Activity at AAC(6')-li (unknown origin).
Test [6] is described as follows: Ratio of Kcat to Km for AAC(6')-li (unknown origin).
For test [7], the system named is Escherichia coli. The test can be described thus: Antibacterial activity against Escherichia coli ATCC 25922. Type of test: functional.
Test [8] is described as follows: Inhibition of AAC(6')-ly (unknown origin) in presence of kanamycin A.
Test [9] in a line: Inhibition of AAC(6')-ly (unknown origin) in presence of ribostamycin.

Turning to `N#Cc1ccc(O[C@H]2C[C@H](N)C[C@@H]2N)cc1`, in test [1], the affinity, expressed as Kd, was 20 µM.
Compound `CC(C)(COP(=O)(O)OP(=O)(O)OC[C@H]1O[C@@H](n2cnc3c(N)ncnc32)[C@H](O)[C@@H]1OP(=O)(O)O)[C@@H](O)C(=O)NCCC(=O)NCCSCC(=O)NCc1ccc(O[C@H]2C[C@H](N)C[C@@H]2N)cc1` displayed a Ki in test [2] of 500 nM. Besides, binding in test [1] was put at a Kd of 0.95 µM.
As for `CNC[C@@H]1CC[C@@H](N)[C@@H](O[C@H]2[C@H](O)[C@@H](O[C@@H]3O[C@@H](CO)[C@H](O)[C@@H](N)[C@@H]3O)[C@H](N)C[C@@H]2N)O1`, the MIC against Escherichia coli [3] was 1.56 µg/mL (≈ 3.35 µM); against Pseudomonas aeruginosa, 12.5 µg/mL (≈ 26.9 µM).
As for `CCNC[C@H]1O[C@H](O[C@H]2[C@H](O)[C@@H](O[C@@H]3O[C@@H](CO)[C@H](O)[C@@H](N)[C@@H]3O)[C@H](NC(=O)[C@@H](O)CCN)C[C@@H]2N)[C@H](O)[C@@H](O)[C@@H]1O`, the MIC against Escherichia coli [3] was 1.56 µg/mL (≈ 2.54 µM); against Pseudomonas aeruginosa, 100 µg/mL (≈ 163 µM).
As for `CNC[C@H]1O[C@H](O[C@H]2[C@H](O)[C@@H](O[C@@H]3O[C@@H](CO)[C@H](O)[C@@H](N)[C@@H]3O)[C@H](N)C[C@@H]2N)[C@H](O)[C@@H](O)[C@@H]1O`, the MIC was 1.56 µg/mL (≈ 3.13 µM) with Escherichia coli [3] and more than 100 µg/mL in the test with Pseudomonas aeruginosa.
In [1], `N[C@H]1C[C@H](Oc2ccccc2[N+](=O)[O-])[C@@H](N)C1` returned a Kd of 23 µM.
As for `CN(CCCCN(C)C[C@@H](O)CO[C@@H]1[C@@H](O)[C@H](N)C[C@H](N)[C@H]1O[C@H]1O[C@H](CN)[C@@H](O)[C@H](O)[C@H]1N)C[C@@H](O)CO[C@@H]1[C@@H](O)[C@H](N)C[C@H](N)[C@H]1O[C@H]1O[C@H](CN)[C@@H](O)[C@H](O)[C@H]1N`, in test [4], the Kd came out at 40 nM. Also, in test [5], the Km stood at 28.7 µM and the kcat worked out at 0.26 s⁻¹. In test [6], the kcat/Km amounted to 0.93 ×10⁴ /M/s. This compound displayed an MIC with Escherichia coli [7] of 6.25 µM (≈ 5.46 µg/mL).
In turn, `N[C@@H]1C[C@H](N)[C@@H](O)C1` displayed a Kd in test [1] of 41 µM.
As for `N=C(N)N[C@H]1[C@@H](O[C@H]2[C@H](O[C@@H]3O[C@H](CO)[C@@H](O)[C@H]3O)[C@@H](O)[C@H](NC(=N)N)C[C@@H]2NC(=N)N)O[C@H](CNC(=O)CCN)[C@@H](O)[C@@H]1O`, in test [8], the Kii is 23 µM and the Kis is 31 µM. In test [9], the Kii stood at 92 µM and the Kis came out at 17 µM.
On to `NC[C@H]1O[C@H](O[C@H]2[C@H](OCC(=O)NCCCCCNC(=O)CO[C@@H]3[C@@H](O)[C@H](N)C[C@H](N)[C@H]3O[C@H]3O[C@H](CN)[C@@H](O)[C@H](O)[C@H]3N)[C@@H](O)[C@H](N)C[C@@H]2N)[C@H](N)[C@@H](O)[C@@H]1O`, for which, in test [4], the Kd was 800 nM. Also, in test [5], the Km is 83.6 µM and the catalytic constant (kcat) was 1.89 s⁻¹. Further, in test [6], the kcat/Km worked out at 2.26 ×10⁴ /M/s. The MIC with Escherichia coli [7] was 125 µM (≈ 103 µg/mL).
Take `CNC[C@H]1O[C@H](O[C@H]2[C@H](O)[C@@H](O[C@@H]3O[C@@H](CO)[C@H](O)[C@@H](N)[C@@H]3O)[C@H](NC(=O)[C@@H](O)CCN)C[C@@H]2N)[C@H](O)[C@@H](O)[C@@H]1O`: the MIC with Escherichia coli [3] was found to be 1.56 µg/mL (≈ 2.6 µM); in the test on Pseudomonas aeruginosa it was 25 µg/mL (≈ 41.7 µM).
With `NC[C@H]1O[C@H](O[C@H]2[C@H](O)[C@@H](O)[C@H](N)C[C@@H]2N)[C@H](N)[C@@H](O)[C@@H]1O` [NEAMINE], in test [4], binding was characterised by a dissociation constant (Kd) of 10000 nM. In addition, in [5], the Km came out at 5.82 µM and the kcat worked out at 0.419 s⁻¹. Further, the kcat/Km in [6] worked out at 7.2 ×10⁴ /M/s. Besides, the MIC in the test on Escherichia coli [7] came to 50 µM (≈ 16.1 µg/mL).
Turning to `NC[C@@H]1CC[C@@H](N)[C@@H](O[C@H]2[C@H](O)[C@@H](O[C@H]3O[C@H](CO)[C@@H](O)[C@H](N)[C@H]3O)[C@H](N)C[C@@H]2N)O1` [DIBEKACIN], the values for the MIC against Escherichia coli [3] and against Pseudomonas aeruginosa were 25 µg/mL (≈ 55.4 µM) and more than 100 µg/mL, respectively.
In test [1], `Nc1cccc(C(=O)O[C@H]2C[C@H](N)C[C@@H]2N)c1` showed a Kd of 57 µM.
`NC[C@H]1O[C@H](O[C@H]2[C@H](OCC(=O)NCCCNC(=O)CO[C@@H]3[C@@H](O)[C@H](N)C[C@H](N)[C@H]3O[C@H]3O[C@H](CN)[C@@H](O)[C@H](O)[C@H]3N)[C@@H](O)[C@H](N)C[C@@H]2N)[C@H](N)[C@@H](O)[C@@H]1O`: in test [4], the affinity, expressed as Kd, was 1100 nM. In [5], the Km was 53.4 µM and the kcat came out at 0.86 s⁻¹. In addition, the kcat/Km in test [6] stood at 1.6 ×10⁴ /M/s. Also, the lowest concentration to inhibit growth against Escherichia coli [7] (MIC) was 31 µM (≈ 24.8 µg/mL).
With `NC[C@@H]1O[C@@H](O[C@H]2[C@H](O)[C@@H](O[C@H]3O[C@H](CO)[C@@H](O)[C@H](N)[C@H]3O)[C@H](N)C[C@@H]2N)[C@@H](O)[C@H](O)[C@H]1O` [KANAMYCIN A], the MIC in the test on Escherichia coli [3] is 25 µg/mL (≈ 51.6 µM); against Pseudomonas aeruginosa, more than 100 µg/mL.
